# Measurements: patent publication US11839658B2, “Aminoglycoside derivatives and nano-assemblies thereof, including those with quorum sensing inhibitory function” (priority 2017, dated 2023)
# Experiments:
# [1] = system: 24 hours old PA14 biofilm; experiment: Minimum Biofilm Eradicating Concentration (MBEC) assay; assay type: cell-based, Pseudomonas aeruginosa; details: 24 h old PA14 biofilm treated 24 hours
# Experimental: Minimum Biofilm Eradicating Concentration (MBEC) assay was used to determine the minimum concentration of active agents at which a 24 hours old PA14 biofilm is completely eradicated. The MBEC assay was performed as follows: […]
# The 96 well-plates were then kept at 37° C. without shaking for 24 hours to allow the forming of biofilm. Afterwards, the planktonic bacteria were removed, and the 24 hours old biofilm was washed twice with PBS, then fed with fresh PPGAS medium, and ready for the assay. […]
# All cultures were incubated for an additional 24 hours at 37° C. without shaking. […] All cultures were then measured OD650, and the biofilm is considered to be completely eradicated once the resulting OD650 is equal or lower than OD650 of PPGAS medium.
# [2] = system: P. aeruginosa strain PA14 (wild type); experiment: MIC assay against Pseudomonas aeruginosa; assay type: cell-based; details: PA14, read-out: MIC-90 against PA14
# Experimental: The minimum inhibitory concentration (MIC) of the of the tobramycin containing nano-assemblies of example 2 against the P. aeruginosa strain PA14 (wild type) was tested and compared to known MIC values of tobramycin.
# E. coli = details: literature value; cited from earlier work
# [3] = system: Pyocyanin released from PA14 bacteria (wild type); experiment: Pyocyanin assay on Pseudomonas aeruginosa; assay type: cell-based; details: 18 μg/mL Farnesal or Farnesol, 16 h, n=9
# Experimental: Pyocyanin assay was used to quantify the amount of Pyocyanin molecule released from PA14 bacteria (wild type) which were grown aerobically for 16 hours. The Pyocyanin assay was performed as follows:
# A single colony of PA14 was removed from agar plates after 16 hours of growth at 37° C. and transferred into 25 mL Erlenmeyer flasks with 10 mL of PPGAS (proteose peptone glucose ammonium salt medium which is composed of (1 g/L NH4Cl, 1.5 g/L KCl, 19 g/L Tris-HCl, 10 g/L peptone, glucose 5 g/L and 0.1 g/L MgSO4·7H2O, the medium was adjusted to pH 7.4, and sterilized before use). Following 16 hours of aerobic growth with shaking at 200 rpm and 37° C., cultures were centrifuged at 7.450 g, washed twice with 10 mL of fresh PPGAS medium, and resuspended to a final volume of 5 mL solution. Cultures were then diluted to a final OD600 of 0.02 and distributed into 24 well-plates, 1.5 mL each well.
# Compounds Farnesal and Farnesol were diluted in DMSO, then added to wells containing PA14 bacteria, in 1:100 dilutions with a final DMSO concentration of 1% (v/v), so that the final concentration of Farnesal was 18 μg/mL, and of Farnesol was 18 μg/mL. […]
# All cultures were incubated for an additional 16 h under aerobic conditions as mentioned above. […] OD520 was measured in the aqueous phase. […]
# [4] = Dynamic light scattering (DLS): zeta-potential, mean diameter, PDI of nano-assemblies; assay type: physicochemical
smiles,measurement,setting,value
NC[C@H]1O[C@H](O[C@H]2[C@H](O)[C@@H](O[C@H]3O[C@H](CO)[C@@H](O)[C@H](N)[C@H]3O)[C@H](N)C[C@@H]2N)[C@H](N)C[C@@H]1O [Tobramycin],Tobramycin concentration needed for complete biofilm eradication (MBEC),[1],≥ 100 µg/mL
same,MIC90,[2],6.25 to 12.5 µg/mL
same,MIC-90 against E. coli (Dienstag and Neu),E. coli,6.25 µg/mL
CC(C)=CCCC(C)=CCCC(C)=CC=O [Farnesal],percentage inhibition of released Pyocyanin vs PA14 wt control,[3],5.85±3.10%
same,zeta-potential,[4],−33.8±0.5 mV
CC(C)=CCCC(C)=CCCC(C)=CCO [Farnesol],percentage inhibition of released Pyocyanin vs PA14 wt control,[3],12.29±7.35%
